ChEMBL document CHEMBL1142877, “Synthesis and biological evaluation of 4-methylideneisoxazolidin-5-ones--a new class of highly cytotoxic alpha-methylidene-gamma-lactones” (Eur J Med Chem, 2007)
≈ marks a conversion by molar mass, not a printed value. Calls of active or inactive are those of the source. No cut-off for these calls is given here.

Tests used:
[1] = tested on: Enterococcus faecalis; experiment: Antimicrobial activity against Enterococcus faecalis ATCC 29212; format: functional
[2] = tested on: Staphylococcus aureus; experiment: Growth inhibition of Staphylococcus aureus ATCC 29213 at 150 ug/mL; format: functional, organism-based
[3] = tested on: Staphylococcus aureus; experiment: Growth inhibition of Staphylococcus aureus ATCC 29213 at 300 ug/mL; format: functional, organism-based
[4] = tested on: Escherichia coli; experiment: Antimicrobial activity against Escherichia coli NCTC 8196 at 300 ug/mL; format: functional, organism-based
[5] = tested on: Candida albicans; experiment: Antimicrobial activity against Candida albicans ATCC 10231 at 37.5 ug/mL by MTT reduction assay; format: functional, organism-based
[6] = Cytotoxicity against adriamycin-resistant HL60/ADR cells expressing MRP1 after 72 hrs by dye exclusion assay; format: functional, cell-based; details: Homo sapiens
[7] = tested on: Staphylococcus epidermidis; experiment: Growth inhibition of Staphylococcus epidermidis ATCC 12228 at 300 ug/mL; format: functional, organism-based
[8] = tested on: Pseudomonas aeruginosa; experiment: Antimicrobial activity against Pseudomonas aeruginosa NCTC 6749; format: functional
[9] = tested on: Staphylococcus epidermidis; experiment: Growth inhibition of Staphylococcus epidermidis ATCC 12228 at 150 ug/mL; format: functional, organism-based
[10] = tested on: HL-60; experiment: Cytotoxicity against HL60 cells after 72 hrs by dye exclusion assay; format: functional, cell-based; details: Homo sapiens, HL-60, 72 h
[11] = tested on: Escherichia coli; experiment: Antimicrobial activity against Escherichia coli NCTC 8196; format: functional

For `C=C1C(=O)ON(C)C1c1ccc(C)cc1` (stereo not given), the MIC [1] was at least 300 µg/mL, the Activity [2] was “Active” and the Activity [3] was “Active”. For the same molecule, the Activity [4] was “inactive”, the Activity [5] was “Active” and the IC50 [6] was 6 µM. The Activity [7] was “Active”, the MIC [8] was 300 µg/mL (≈ 1480 µM) and the Activity [9] was “Active”.
`COc1cccc2c1C(=O)c1c(O)c3c(c(O)c1C2=O)C[C@@](O)(C(=O)CO)C[C@@H]3O[C@H]1C[C@H](N)[C@H](O)[C@H](C)O1` [DOXORUBICIN] showed an IC50 [10] of 0.013 µM.
In the case of `C=C1C(=O)ON(C)C1C(C)CCC` (stereo not given), the MIC [1] is reported as at least 300 µg/mL, the Activity [2] is reported as “Active” and the MIC [11] is reported as 75 µg/mL (≈ 409 µM). For the same molecule, the Activity [3] was “Active”, the Activity [5] was “Active” and the IC50 [10] was 4.1 µM. The IC50 [6] was 2.5 µM, the Activity [7] was “Active” and the MIC [8] was 300 µg/mL (≈ 1640 µM). For the same molecule, the Activity [9] was “Active”.
